Experimental findings from US12209079B2 (GENERAL INCORPORATED ASSOCIATION PHARMA VALLEY PROJECT …, priority 2017, dated 2025) are described below.

The target of experiment [1] is rhTDO (recombinant human TDO) (Homo sapiens, UniProt P48775). Briefly: Enzyme assay using rhTDO (rate of kynurenine production). Format: biochemical. The settings on record: 2 h; final concentration of the compound 10 μM; rate relative to reaction without compound; read-out: rhTDO-mediated kynurenine production. The method in brief: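 Kynurenine output, as percent of untreated control after background subtraction, read at 490 nm with p-dimethylbenzaldehyde following TCA quench and 15 min heating at 50 °C. Reaction: rhTDO with compound, 10 min preincubation then 120 min at 37 °C, started by 20 mM tryptophan stock, in phosphate/ascorbate/methylene blue/catalase.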
Sequence of rhTDO (recombinant human TDO) (P48775 whole entry): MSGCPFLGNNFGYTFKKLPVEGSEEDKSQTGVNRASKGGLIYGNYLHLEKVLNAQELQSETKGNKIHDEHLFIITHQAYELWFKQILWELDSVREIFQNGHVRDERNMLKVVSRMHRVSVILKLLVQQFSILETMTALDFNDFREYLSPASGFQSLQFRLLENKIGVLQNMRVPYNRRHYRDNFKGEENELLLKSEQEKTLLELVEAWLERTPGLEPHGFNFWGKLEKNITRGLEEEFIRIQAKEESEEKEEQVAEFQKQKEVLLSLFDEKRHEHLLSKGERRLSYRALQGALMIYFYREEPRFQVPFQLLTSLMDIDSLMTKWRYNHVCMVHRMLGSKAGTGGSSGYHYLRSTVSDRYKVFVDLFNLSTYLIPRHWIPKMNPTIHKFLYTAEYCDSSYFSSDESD

A further experiment addresses T1, TDO in A172 cells (Homo sapiens, UniProt P48775).
T1 construct: endogenous in cells; host or cells: A172 cells
Briefly: TDO cell-based assay, kynurenine production in A172 cells. The settings on record: A 172; final concentration of the compound 10 μM; rate relative to culture without compound. The method in brief: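 A172 cells were preincubated with compound for 1 h, then given L-tryptophan (final 524 μM) for 24 h at 37 °C. Kynurenine was read at 460 nm after p-dimethylbenzaldehyde/TCA reagent, background-subtracted, and expressed as % of no-compound production.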

Experiment [2] has as its target rhIDO (recombinant human IDO) (Homo sapiens, UniProt P14902). Briefly: Enzyme assay using rhIDO (rate of kynurenine production). Conditions: 2 h; final concentration of the compound 10 μM; rate relative to reaction without compound; read-out: rhIDO-mediated kynurenine production. The format is biochemical. In short, it runs like this:
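Kynurenine formation, expressed as % of uncompounded reaction after background subtraction, was read by absorbance at 490 nm following TCA stop, 50 °C hydrolysis and Ehrlich-type p-dimethylbenzaldehyde staining. Recombinant human IDO with ascorbate/methylene blue/catalase was pre-exposed to compound 10 min, then reacted 120 min at 37 °C after adding 2 mM tryptophan stock.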

Bounds are passed on as bounds.

T1 sequence (P48775 whole entry): as above
Sequence of rhIDO (recombinant human IDO) (P14902 whole entry): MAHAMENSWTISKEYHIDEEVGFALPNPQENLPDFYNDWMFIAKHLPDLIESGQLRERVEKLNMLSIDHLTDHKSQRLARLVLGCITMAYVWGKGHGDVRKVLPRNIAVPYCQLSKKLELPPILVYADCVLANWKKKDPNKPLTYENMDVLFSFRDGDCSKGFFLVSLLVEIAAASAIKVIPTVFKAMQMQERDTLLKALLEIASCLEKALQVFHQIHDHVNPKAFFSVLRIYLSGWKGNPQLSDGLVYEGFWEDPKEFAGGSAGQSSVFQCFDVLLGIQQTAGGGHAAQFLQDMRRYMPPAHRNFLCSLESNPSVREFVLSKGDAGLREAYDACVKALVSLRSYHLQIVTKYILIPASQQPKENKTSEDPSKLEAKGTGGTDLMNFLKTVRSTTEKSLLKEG

Take `Cl.Cl.N=C(N)SCc1ccccc1CSC(=N)N` [Compound 1, 1,2-phenylenebis(methylene) dicarbamimidothioate dihydrochloride]: the figures for the remaining activity at 10 µM (in experiment [1]; on TDO in A172 cells; in experiment [2]) were 13%, -3% and 26%, respectively.

On to `Br.Br.N=C(N)SCc1ccc(F)cc1CSC(=N)N` [Compound 2, (4-fluoro-1,2-phenylene)bis(methylene) dicarbamimidothioate dihydrobromide], for which the remaining activity at 10 µM in experiment [1] is 6%; at TDO in A172 cells it was 7%; in experiment [2], 11%.

For `Br.Br.N=C(N)SCc1ccc(Cl)cc1CSC(=N)N` [Compound 7, (4-chloro-1,2-phenylene)bis(methylene) dicarbamimidothioate dihydrobromide], the results for the remaining activity at 10 µM (in experiment [1]; at TDO in A172 cells; in experiment [2]) were 3%, -1% and 10%, respectively.

In the case of `Br.Br.N=C(N)SCc1ccc(Br)cc1CSC(=N)N` [Compound 10, (4-bromo-1,2-phenylene)bis(methylene) dicarbamimidothioate dihydrobromide], the remaining activity at 10 µM is 3% in experiment [1], 2% at TDO in A172 cells and 1% in experiment [2].

As for `Br.Br.N=C(N)SCc1cscc1CSC(=N)N` [Compound 15, thiophene-3,4-diylbis(methylene) dicarbamimidothioate dihydrobromide], the results for the remaining activity at 10 µM (in experiment [1]; at TDO in A172 cells; in experiment [2]) were 12%, 7% and 22%, respectively.

On to `c1ccc(CSC2=NCN(CC3CCCCC3)CN2)c(CSC2=NCN(CC3CCCCC3)CN2)c1` [Compound 29, 1,2-bis(((5-(cyclohexylmethyl)-1,4,5,6-tetrahydro-1,3,5-triazin-2-yl)thio)methyl)benzene], for which the results for the remaining activity at 10 µM (in experiment [1]; on TDO in A172 cells; in experiment [2]) were 15%, 0% and 23%, respectively.

In the case of `Br.Br.N=C(N)SCc1ccsc1CSC(=N)N` [Compound 31, thiophene-2,3-diylbis(methylene) dicarbamimidothioate dihydrobromide], the results for the remaining activity at 10 µM (in experiment [1]; at TDO in A172 cells; in experiment [2]) were 17%, 20% and 11%, respectively.

Turning to `Cl.Cl.c1ccc(CCN2CN=C(SCc3cscc3CSC3=NCN(CCc4ccccc4)CN3)NC2)cc1` [Compound 33, 3,4-Bis{[(5-phenethyl-1,4,5,6-tetrahydro-1,3,5-triazin-2-yl)thio]methyl}thiophene dihydrochloride], the results for the remaining activity at 10 µM (in experiment [1]; at TDO in A172 cells; in experiment [2]) were 21%, 4% and 37%, respectively.

In the case of `Clc1cc(CSC2=NCN(CCc3ccccc3)CN2)c(CSC2=NCN(CCc3ccccc3)CN2)cc1Cl` [Compound 37, 6,6′-(((4,5-Dichloro-1,2-phenylene)bis(methylene))bis(sulfanediyl))bis(3-phenethyl-1,2,3,4-tetrahydro-1,3,5-triazine)], the remaining activity at 10 µM in experiment [1] is below 7%; on TDO in A172 cells it was -9%; in experiment [2], below 9%.

`N/C(=N\c1ccc(Br)cc1)SCc1ccc(Br)cc1CS/C(N)=N/c1ccc(Br)cc1` [Compound 49, (4-Bromo-1,2-phenylene)bis(methylene) (E,E)-bis(N′-(4-bromophenyl)carbamimidothioate)]: the remaining activity at 10 µM in experiment [1] stood at 15%; on TDO in A172 cells, 8%; in experiment [2], 1%.

In the case of `Clc1cc(CSC2=NCN(CC3CCCCC3)CN2)c(CSC2=NCN(CC3CCCCC3)CN2)cc1Cl` [Compound 50, 6,6′-(((4,5-Dichloro-1,2-phenylene)bis(methylene))bis(sulfanediyl))bis(3-(cyclohexylmethyl)-1,2,3,4-tetrahydro-1,3,5-triazine)], the results for the remaining activity at 10 µM (in experiment [1]; at TDO in A172 cells; in experiment [2]) were 4%, 4% and 9%, respectively.

In the case of `Brc1ccc(CSC2=NCN(CC3CCCCC3)CN2)c(CSC2=NCN(CC3CCCCC3)CN2)c1` [Compound 52, 6,6′-(((4-Bromo-1,2-phenylene)bis(methylene))bis(sulfanediyl))bis(3-(cyclohexylmethyl)-1,2,3,4-tetrahydro-1,3,5-triazine)], the remaining activity at 10 µM was determined as 5% in experiment [1], 5% on TDO in A172 cells and 14% in experiment [2].

Consider `Br.N#Cc1ccc(CNC(=O)c2ccc(Br)cc2CSC(=N)N)cc1` [Compound 76, 5-Bromo-2-((4-cyanobenzyl)carbamoyl)benzyl carbamimidothioate hydrobromide], for which the remaining activity at 10 µM in experiment [1] came out at 15%; at TDO in A172 cells, 24%; in experiment [2], 78%.

For `Br.Br.N/C(=N\c1ccc(F)cc1F)SCc1ccccc1CS/C(N)=N/c1ccc(F)cc1F` [Compound 95, 1,2-Phenylenebis(methylene) (E,E)-bis(N-(2,4-difluorophenyl)carbamimidothioate)dihydrobromide], the remaining activity at 10 µM is 6% in experiment [1], -7% at TDO in A172 cells and 3% in experiment [2].

Turning to `Br.N#Cc1ccc(CNC(=O)c2cc(Br)ccc2CSC(=N)N)cc1` [Compound 103, 4-Bromo-2-((4-cyanobenzyl)carbamoyl)benzyl carbamimidothioate hydrobromide], the remaining activity at 10 µM in experiment [1] was determined as 22%; at TDO in A172 cells, 18%; in experiment [2], 0%.
